The nature of the series: Pharmacokinetics of anthraquinones in plasma of cholestatic rats after oral DH, DH+MX or DHXSD. The note with it: oral DH 1.2 g/kg, mean ± SD, n = 6. In kind it is in vivo, rat.

Procedure: Cholestasis was established in rats through a single oral dose of ANIT (60 mg/kg in olive oil). […] Sequential blood samples were obtained at 5, 15, 30 min, and 1, 2, 4, 6, 8, 12, 24, and 36 h after administration. Plasma was separated by centrifugation and deproteinized by adding a 3:1 (v/v) ratio of acetonitrile containing 5 ng/mL IS1. Ultra-performance liquid chromatography–tandem mass spectrometry analysis was performed on the supernatants following a centrifugation, employing the described analytical approach [29].
Pharmacokinetic parameters were calculated using Drug And Statistics software (version 3.0). Intergroup comparisons were performed by one-way ANOVA followed by Tukey’s post hoc test for multiple comparisons. A p-value < 0.05 was considered statistically significant.

`O=C1c2cccc(O)c2C(=O)c2c(O)cc(CO)cc21` [Aloe emodin, aloe emodin]: the t1/2 was found to be 4.88 ± 0.97 h.

The values are drawn from paper PMC13028883 (Pharmaceuticals, 2026).
